Test results taken from ChEMBL document CHEMBL1127324, “Solid-state and solution conformations of the potent HIV inhibitor, 4'-azidothymidine” (J Med Chem, 1994).

Test system: Human immunodeficiency virus
Assay: In vitro inhibitory activity against HIV was determined
Type: functional, organism-based
Details: Human immunodeficiency virus 1

SMILES: Cc1cn([C@H]2C[C@H](O)[C@](CO)(N=[N+]=[N-])O2)c(=O)[nH]c1=O
- IC50: 10 nM
